Our source for the IC50 values is patent publication US20250206730A1 (AUTOTELIC BIO INC., priority 2022, published 2025).

Experiment [1] has as its system TGF-β signaling. The experiment can be described thus: Assay for evaluating cellular inhibition of TGF-β signaling, HEK293 (SBE reporter) luciferase reporter. Format: cell-based. The note with it: Homo sapiens; HEK293 (SBE reporter) stable cells, 0.5% FBS, 2 h pre-treatment, TGF-β1 2 ng/mL 24 h; read-out: IC50 HEK 293 Cell. The procedure:
[Example 2] Assay for Evaluating Cellular Inhibition of TGF-β Signaling
4T1 (SBE-luc2P) transient pool that have SBE-luc2P (hygro) expression plasmid or HEK293 (SBE reporter) stable cells (BPS bioscience) were seeded at 6×10^3 cells/well or 2.5×10^4 cells/well in 96-well plate, respectively. 4T1 (SBE-luc2P) transient pool were pre-treated with novel compound synthesized in Example 1 above in 0.2% FBS at approximately 60% confluence at 37° C. in 5% CO2. Also, HEK293 (SBE reporter) stable cells were pre-treated with each test compounds of formula in 0.5% FBS at approximately 80% confluence at 37° C. in 5% CO2. After 2 hours, cells were treated with TGF-β1 (2 ng/mL) for 24 h at 37° C. in 5% CO2. Cell lysates were prepared using Luciferase Assay (Promega) according to the manufacturer's instruction, and luminescence was measured by a plate reader, Biotek Synergy H1 (Vermont, USA).
(In a reporter assay the amount or activity of a reporter protein is the signal.)

Experiment [2] addresses T1, ALK5 kinase (Homo sapiens, UniProt P36897).
T1 sequence (P36897 34-503): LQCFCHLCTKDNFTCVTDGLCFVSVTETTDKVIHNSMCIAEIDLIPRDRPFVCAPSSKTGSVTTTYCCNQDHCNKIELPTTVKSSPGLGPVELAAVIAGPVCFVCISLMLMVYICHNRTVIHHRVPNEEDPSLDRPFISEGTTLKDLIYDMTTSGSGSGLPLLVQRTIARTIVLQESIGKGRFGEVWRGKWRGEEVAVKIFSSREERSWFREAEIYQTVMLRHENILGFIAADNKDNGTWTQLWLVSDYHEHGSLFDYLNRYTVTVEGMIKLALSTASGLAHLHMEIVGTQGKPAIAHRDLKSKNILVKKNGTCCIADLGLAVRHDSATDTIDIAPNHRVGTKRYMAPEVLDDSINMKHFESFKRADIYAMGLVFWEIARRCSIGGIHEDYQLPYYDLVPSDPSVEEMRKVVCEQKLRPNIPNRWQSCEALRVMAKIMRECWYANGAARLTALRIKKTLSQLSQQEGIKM
The experiment can be described thus: LanthaScreen Eu Kinase Binding Assay. The following applies: Kinase Tracer 178, Eu-anti-GST Antibody, read-out: IC50 Enzyme. The gist of the method:
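Tracer-displacement TR-FRET: after 30 min RT compound–kinase preincubation, Eu-labelled anti-GST antibody plus Kinase Tracer 178 were incubated 60 min at RT. Binding was read as a lower 665 nm/615 nm emission ratio (excitation 340 nm).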
A general note: Time-resolved FRET reads energy transfer from a long-lived donor to a nearby acceptor.

The subject of experiment [3] is TGF-β signaling. The experiment can be described thus: Assay for evaluating cellular inhibition of TGF-β signaling, 4T1 (SBE-luc2P) luciferase reporter. It is filed as cell-based. The note with it: Mus musculus, 4T1, 4T1 (SBE-luc2P) transient pool, 0.2% FBS, 2 h pre-treatment, TGF-β1 2 ng/mL 24 h; read-out: IC50 4T1 Cell. The gist of the method:
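Luminescence from SMAD-binding-element luciferase was measured after 24 h of 2 ng/mL TGF-β1 at 37 °C, following 2 h compound pre-treatment. HEK293 stable reporter cells were used at 2.5×10^4/well in 0.5% FBS (~80% confluent); the 4T1 SBE-luc2P transient pool at 6×10^3/well in 0.2% FBS (~60% confluent).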

pIC50: −log10 of the molar value.

As for `CCc1nc(-c2ccccc2)c(Oc2ccnc(Nc3ccc(-c4cn[nH]c4)cn3)c2)s1` [A-213, N-(5-(1H-Pyrazol-4-yl)pyridin-2-yl)-4-((2-ethyl-4-phenylthiazol-5-yl)oxy)pyridin-2-amine], the pIC50 in experiment [1] was over 7.00. `CCc1nc(-c2ccccc2)c(Oc2ccnc(Nc3ccc(NCCN4CCN(CC)CC4)cc3)c2)s1` [A-207, N^1-(4-((2-Ethyl-4-phenylthiazol-5-yl)oxy)pyridin-2-yl)-N^4-(2-(4-ethylpiperazin-1-yl)ethyl)benzene-1,4-diamine]: the pIC50 in experiment [1] was over 7.00.

`CNC(=O)c1ccc(Nc2cc(Oc3sc(C4CC4)nc3-c3cccc(C)n3)ccn2)nc1` [A-282, 6-((4-((2-Cyclopropyl-4-(6-methylpyridin-2-yl)thiazol-5-yl)oxy)pyridin-2-yl)amino)-N-methylnicotinamide]: in experiment [1], the pIC50 was over 7.00. Regarding `CCc1nc(-c2ccccc2)c(Oc2ccnc(Nc3ccc(NCCN4CCN(C)CC4)cc3)c2)s1` [A-206, N^1-(4-((2-Ethyl-4-phenylthiazol-5-yl)oxy)pyridin-2-yl)-N^4-(2-(4-methylpiperazin-1-yl)ethyl)benzene-1,4-diamine], the negative logarithm of the IC50 (pIC50) in experiment [1] is over 7.00. Consider `CNC(=O)c1cccc(Nc2cc(Oc3sc(C4CC4)nc3-c3cccc(C)n3)ccn2)c1` [A-281, 3-((4-((2-Cyclopropyl-4-(6-methylpyridin-2-yl)thiazol-5-yl)oxy)pyridin-2-yl)amino)-N-methylbenzamide], for which the pIC50 in experiment [1] was over 7.00.

Take `CCc1nc(-c2ccccc2)c(Oc2ccnc(Nc3ccc(N4CCC(NC)C4)cn3)c2)s1` (stereo not shown) [A-312, 4-((2-Ethyl-4-phenylthiazol-5-yl)oxy)-N-(5-(3-(methylamino)pyrrolidin-1-yl)pyridin-2-yl)pyridin-2-amine]: the pIC50 in experiment [1] was over 7.00. Take `NS(=O)(=O)c1cccc(Nc2cc(Oc3oc(C4CC4)nc3-c3ccccc3)ccn2)c1` [A-298, 3-((4-((2-Cyclopropyl-4-phenyloxazol-5-yl)oxy)pyridin-2-yl)amino)benzenesulfonamide]: the negative logarithm of the IC50 (pIC50) in experiment [1] was over 7.00. In the case of `NC(=O)c1cccc(Nc2cc(Oc3oc(C4CC4)nc3-c3ccccc3)ccn2)n1` [A-299, 6-((4-((2-Cyclopropyl-4-phenyloxazol-5-yl)oxy)pyridin-2-yl)amino)picolinamide], the pIC50 in experiment [1] is over 7.00. Turning to `CCc1nc(-c2ccccc2)c(Oc2ccnc(Nc3ccc(NCCN4CCN(C(C)C)CC4)cc3)c2)s1` [A-205, N^1-(4-((2-Ethyl-4-phenylthiazol-5-yl)oxy)pyridin-2-yl)-N^4-(2-(4-isopropylpiperazin-1-yl)ethyl)benzene-1,4-diamine], the pIC50 in experiment [1] is over 7.00.

Regarding `CCc1nc(-c2ccccc2)c(Oc2ccnc(Nc3ccc(N4CCC(N)C4)cc3)c2)s1` (stereo not shown) [A-214, N-(4-(3-Aminopyrrolidin-1-yl)phenyl)-4-((2-ethyl-4-phenylthiazol-5-yl)oxy)pyridin-2-amine], the pIC50 in experiment [1] is over 7.00. `CCc1nc(-c2ccccc2)c(Oc2ccnc(Nc3ccc(NCCN4CCCC4)cc3)c2)s1` [A-208, N^1-(4-((2-Ethyl-4-phenylthiazol-5-yl)oxy)pyridin-2-yl)-N^4-(2-(pyrrolidin-1-yl)ethyl)benzene-1,4-diamine]: the pIC50 in experiment [1] is over 7.00. The same measure, in the same setting: under `CCc1nc(-c2ccccc2)c(Oc2ccnc(Nc3ccc(NCCN4CCN(C)CC4)cn3)c2)s1` [A-209, N^2-(4-((2-Ethyl-4-phenylthiazol-5-yl)oxy)pyridin-2-yl)-N^5-(2-(4-methylpiperazin-1-yl)ethyl)pyridine-2,5-diamine] stands over 7.00; under `CCc1nc(-c2ccccc2)c(Oc2ccnc(Nc3ccc(C(=O)NCCN4CCN(C(C)C)CC4)cn3)c2)s1` [A-202, 6-((4-((2-Ethyl-4-phenylthiazol-5-yl)oxy)pyridin-2-yl)amino)-N-(2-(4-isopropylpiperazin-1-yl)ethyl)nicotinamide], over 7.00; under `CCc1nc(-c2ccccc2)c(Oc2ccnc(Nc3ccc(C(=O)O)cc3)n2)s1` [A-246, 4-((4-((2-Ethyl-4-phenylthiazol-5-yl)oxy)pyrimidin-2-yl)amino)benzoic acid], over 7.00. Still for that read-out and setting: under `CCc1nc(-c2ccccc2)c(Oc2ccnc(Nc3ccc(N4CCC(N)C4)cn3)c2)s1` (stereo not shown) [A-204, 5-(3-Aminopyrrolidin-1-yl)-N-(4-((2-ethyl-4-phenylthiazol-5-yl)oxy)pyridin-2-yl)pyridin-2-amine] stands over 7.00; under `CCc1nc(-c2ccccc2)c(Oc2ccnc(Nc3cccc(C(N)=O)n3)n2)s1` [A-241, 6-((4-((2-Ethyl-4-phenylthiazol-5-yl)oxy)pyrimidin-2-yl)amino)picolinamide], over 7.00.

For the compound `NC(=O)c1cccc(Nc2cc(Oc3oc(C4CC4)nc3-c3ccccc3)ccn2)c1` [A-296, 3-((4-((2-Cyclopropyl-4-phenyloxazol-5-yl)oxy)pyridin-2-yl)amino)benzamide], in experiment [1], the negative logarithm of the IC50 (pIC50) was over 7.00. Consider `CCc1nc(-c2ccccc2)c(Oc2ccnc(Nc3ccc(C(=O)NCCN4CCCC4)cn3)c2)s1` [A-199, 6-((4-((2-Ethyl-4-phenylthiazol-5-yl)oxy)pyridin-2-yl)amino)-N-(2-(pyrrolidin-1-yl)ethyl)nicotinamide], for which the pIC50 in experiment [1] was over 7.00.

As for `O=C(O)c1cccc(Nc2cc(Oc3oc(C4CC4)nc3-c3ccccc3)ccn2)c1` [A-300, 3-((4-((2-Cyclopropyl-4-phenyloxazol-5-yl)oxy)pyridin-2-yl)amino)benzoic acid], the negative logarithm of the IC50 (pIC50) in experiment [1] was over 7.00. On the same count and under the same terms, under `CCc1nc(-c2ccccc2)c(Oc2ccnc(Nc3ccc(NCCN4CCN(C(C)C)CC4)cn3)c2)s1` [A-212, N^2-(4-((2-Ethyl-4-phenylthiazol-5-yl)oxy)pyridin-2-yl)-N^5-(2-(4-isopropylpiperazin-1-yl)ethyl)pyridine-2,5-diamine] stands over 7.00; under `CCc1nc(-c2ccccc2)c(Oc2ccnc(Nc3ccc(C(=O)NCCN4CCN(C)CC4)cn3)c2)s1` [A-201, 6-((4-((2-Ethyl-4-phenylthiazol-5-yl)oxy)pyridin-2-yl)amino)-N-(2-(4-methylpiperazin-1-yl)ethyl)nicotinamide], over 7.00.

In the case of `CCc1nc(-c2ccccc2)c(Oc2ccnc(Nc3ccc(C(=O)NCCN4CCN(CC)CC4)cn3)c2)s1` [A-203, 6-((4-((2-Ethyl-4-phenylthiazol-5-yl)oxy)pyridin-2-yl)amino)-N-(2-(4-ethylpiperazin-1-yl)ethyl)nicotinamide], the negative logarithm of the IC50 (pIC50) in experiment [1] was over 7.00. Regarding `NC(=O)c1cccc(Nc2cc(Oc3sc(C4CC4)nc3-c3ccccc3)ccn2)n1` [A-124, 6-((4-((2-Cyclopropyl-4-phenylthiazol-5-yl)oxy)pyridin-2-yl)amino)picolinamide], the pIC50 in experiment [2] and in experiment [3] was over 7.00 each time. As to `NC(=O)c1ccc(Nc2cc(Oc3sc(N)nc3-c3ccccc3)ccn2)nc1` [A-9, 6-((4-((2-Amino-4-phenylthiazol-5-yl)oxy)pyridin-2-yl)amino)nicotinamide], the pIC50 in experiment [2] and in experiment [3] was over 7.00 throughout. Regarding `CCc1nc(-c2ccccc2)c(Oc2ccnc(Nc3ccc(C(N)=O)cn3)c2)s1` [A-190, 6-((4-((2-Ethyl-4-phenylthiazol-5-yl)oxy)pyridin-2-yl)amino)nicotinamide], the pIC50 in experiment [2] and in experiment [3] was over 7.00 in each case.

Turning to `Cc1nc(-c2ccccc2)c(Oc2ccnc(Nc3ccc(S(N)(=O)=O)cc3)c2)s1` [A-64, 4-((4-((2-Methyl-4-phenylthiazol-5-yl)oxy)pyridin-2-yl)amino)benzenesulfonamide], the pIC50 was over 7.00 in experiment [2] and under 7.00 in experiment [3]. `Cc1nc(-c2ccccc2)c(Oc2ccnc(Nc3cc(C(N)=O)ccn3)c2)s1` [A-93, 2-((4-((2-Methyl-4-phenylthiazol-5-yl)oxy)pyridin-2-yl)amino)isonicotinamide]: the pIC50 in experiment [2] and in experiment [3] was over 7.00 throughout.

Regarding `CC(C)c1nc(-c2ccccc2)c(Oc2ccnc(Nc3cccc(C(=O)O)n3)c2)s1` [A-217, 6-((4-((2-Isopropyl-4-phenylthiazol-5-yl)oxy)pyridin-2-yl)amino)picolinic acid], the pIC50 in experiment [2] and in experiment [3] was under 7.00 each time.

By pIC50 is commonly meant the IC50 on a negative log10 scale, so that one unit is a factor of ten.
